For two compounds, X-ray crystal structure results are on record in PMC11494293, “Biochemical and structural insights into a 5’ to 3’ RNA ligase reveal a potential role in tRNA ligation” (Proceedings of the National Academy of Sciences of the …, 2024).

This assay deals with T1, YspRLIG1 (Yasminevirus RLIG1) (Yasminevirus sp. GU-2018, UniProt A0A5K0UB63).
T1 construct: gene YASMINEVIRUS_1364; minimal RNA ligase (NTase) fold; active-site Lys73
T1 sequence (A0A5K0UB63 1-276): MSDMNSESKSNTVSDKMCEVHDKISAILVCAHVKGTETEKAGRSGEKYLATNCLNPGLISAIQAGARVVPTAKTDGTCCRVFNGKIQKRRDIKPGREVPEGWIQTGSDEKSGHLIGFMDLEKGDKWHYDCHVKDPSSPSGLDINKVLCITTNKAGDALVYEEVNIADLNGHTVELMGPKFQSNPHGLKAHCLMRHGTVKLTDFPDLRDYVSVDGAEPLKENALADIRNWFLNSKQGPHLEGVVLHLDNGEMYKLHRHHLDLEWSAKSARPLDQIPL
Kind of assay: X-ray crystal structure. Type of assay: binding. Particulars: crystallised in the presence of ATP, active site, either AMP or ADP modelled.

The structures appear in SMILES notation.

Regarding `Nc1ncnc2c1ncn2[C@@H]1O[C@H](COP(=O)(O)OP(=O)(O)O)[C@@H](O)[C@H]1O` [ADP], the X-ray crystal structure entry is recorded as “In the ADP-bound YspRLIG1^WT structure, the O5-Pα bond is rotated”.

For the compound `Nc1ncnc2c1ncn2[C@@H]1O[C@H](COP(=O)(O)O)[C@@H](O)[C@H]1O` [AMP], for the setting “WT protein adenylated”, the X-ray crystal structure entry is recorded as “In the WT structure, either AMP or ADP was modeled in the active site”.
